Measured values reported in patent JP2008297320A (priority 2000, dated 2001).

Test: Test Example 2: persistence of Compound B concentration in mouse lung tissue (14C-labelled compounds)
Assay type: in vivo
Details: Balb/C mice (female), up to 72 h
[1] = intranasal 14C-labelled Compound A 0.3 and 1 μmol/kg

| Compound | conversion of Compound A (ester derivative) to Compound B (active form) [1] | persistence of Compound B (active form) concentration in lung tissue after administration of Compound A [1] | disappearance of Compound B from lung tissue (intranasal 14C-labelled Compound B 4 μmol/kg) |
| --- | --- | --- | --- |
| CCCCCCCC(=O)OC[C@@H](O)[C@@H](OC)[C@@H]1OC(C(=O)O)=C[C@H](NC(=N)N)[C@H]1NC(C)=O [化合物A, 5-アセタミド-4-グアニジノ-9-O-オクタノイル-2、3、4、5-テトラデオキシ-7-メトキシ-D-グリセロ-D-ガラクト-ノン-2-エノピラソン酸] | 速やかに変換される | 長期にわたり持続した | – |
| CO[C@@H]([C@@H]1OC(C(=O)O)=C[C@H](NC(=N)N)[C@H]1NC(C)=O)[C@H](O)CO [化合物B, 5-アセタミド-4-グアニジノ-2、3、4、5-テトラデオキシ-7-メトキシ-D-グリセロ-D-ガラクト-ノン-2-エノピラソン酸, reference compound] | – | – | 速やかに肺組織から消失した |
